How the values were obtained:
human MetAP2 enzyme [1] = target: T1, human MetAP2 enzyme (Homo sapiens, UniProt P50579); test: MetAP2 enzyme assay, enzyme complexed with cobalt ions; conditions: MetAP2 Co pIC50, MetAP2 enzyme complexed with cobalt ions; Met-AMC substrate at Km
human MetAP2 enzyme [2] = target: T1, human MetAP2 enzyme; test: MetAP2 enzyme assay, enzyme complexed with manganese ions; conditions: MetAP2 Mn pIC50, MetAP2 enzyme complexed with manganese ions; Met-AMC substrate at Km
Method: DNA encoding the full-length sequence of human MetAP2 enzyme is amplified by PCR and cloned into a pFastBac expression vector (Invitrogen). Recombinant baculovirus incorporating the MetAP2 construct is generated by transposition using the Bac-to-Bac system (Invitrogen). The expression of recombinant protein is carried out by infection of Spodoptera frugiperda Sf9 cells (Invitrogen) in 5 L Wave Bioreactors (Wave Biotech). Recombinant protein is isolated from cellular extracts by binding to an SP Hitrap Fast Flow or SP Sepharose (Sigma) column, and the protein is eluted using a NaCl gradient. Partially purified extracts of MetAP2 are further purified by an AKTA FPLC over a Superdex-200 column (GE). The purity of MetAP2 protein is determined on denaturing SDS-PAGE gel.
The results for each well are expressed as percent inhibition and calculated using the equation:

T1 sequence (P50579 whole entry): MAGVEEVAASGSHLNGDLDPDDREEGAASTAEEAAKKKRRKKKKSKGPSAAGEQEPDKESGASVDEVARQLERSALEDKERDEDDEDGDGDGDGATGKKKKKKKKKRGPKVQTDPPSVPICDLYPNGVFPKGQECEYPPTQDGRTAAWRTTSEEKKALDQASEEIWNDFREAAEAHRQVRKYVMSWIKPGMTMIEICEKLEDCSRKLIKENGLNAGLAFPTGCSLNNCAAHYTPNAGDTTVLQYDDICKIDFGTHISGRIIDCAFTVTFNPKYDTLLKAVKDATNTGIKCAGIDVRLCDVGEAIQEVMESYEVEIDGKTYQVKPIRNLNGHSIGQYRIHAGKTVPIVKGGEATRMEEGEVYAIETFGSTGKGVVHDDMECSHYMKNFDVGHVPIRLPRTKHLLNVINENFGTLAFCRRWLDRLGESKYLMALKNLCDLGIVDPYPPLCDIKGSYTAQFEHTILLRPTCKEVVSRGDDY

| SMILES | IC50 (human MetAP2 enzyme [1]) | IC50 (human MetAP2 enzyme [2]) |
| --- | --- | --- |
| Nc1ncc(Cl)cc1-c1cc(C(F)(F)F)cc2[nH]ncc12 [Example 137, 5-chloro-3-(6-(trifluoromethyl)-1H-indazol-4-yl)pyridin-2-amine] | 158 nM | 10 nM |
| Nc1cc(Cl)cnc1-c1cc(C(F)(F)F)cc2[nH]ncc12 [Example 216, 5-chloro-2-(6-(trifluoromethyl)-1H-indazol-4-yl)pyridin-3-amine] | 398 nM | 10 nM |
| CC(=O)Nc1ccc(-c2cc(C(F)(F)F)cc3[nH]ncc23)c(C)n1 [Example 178, N-(6-methyl-5-(6-(trifluoromethyl)-1H-indazol-4-yl)pyridin-2-yl)acetamide] | 31.6 nM | 7.94 nM |
| Cc1nn(CCC#N)c(C)c1-c1cc(C(F)(F)F)cc2[nH]ncc12 [Example 174, 3-(3,5-dimethyl-4-(6-(trifluoromethyl)-1H-indazol-4-yl)-1H-pyrazol-1-yl)propanenitrile] | 63.1 nM | 12.6 nM |
| CN1C(=O)COc2ccc(-c3cc(C(F)(F)F)cc4[nH]ncc34)cc21 [Example 296, 4-methyl-6-(6-(trifluoromethyl)-1H-indazol-4-yl)-2H-benzo[b][1,4]oxazin-3(4H)-one] | 20 nM | 6.31 nM |
| CC(C)Oc1ncccc1-c1cc(C(F)(F)F)cc2[nH]ncc12 [Example 143, 4-(2-isopropoxypyridin-3-yl)-6-(trifluoromethyl)-1H-indazole] | 63.1 nM | 15.8 nM |
| Cc1ccc(N)c(-c2cc(C(F)(F)F)cc3[nH]ncc23)n1 [Example 188, 6-methyl-2-(6-(trifluoromethyl)-1H-indazol-4-yl)pyridin-3-amine] | 1580 nM | 79.4 nM |
| Cc1[nH]c(=O)[nH]c(=O)c1-c1cc(C(F)(F)F)cc2[nH]ncc12 [Example 204, 6-methyl-5-(6-(trifluoromethyl)-1H-indazol-4-yl)pyrimidine-2,4(1H,3H)-dione] | 794 nM | 15.8 nM |
| FC(F)(F)c1cc(-c2cnc3[nH]ccc3n2)c2cn[nH]c2c1 [Example 240, 2-(6-(trifluoromethyl)-1H-indazol-4-yl)-5H-pyrrolo[2,3-b]pyrazine] | 158 nM | 5.01 nM |
| Cc1nn(-c2nnn[nH]2)c(C)c1-c1cc(C(F)(F)F)cc2[nH]ncc12 [Example 169, 4-(3,5-dimethyl-1-(1H-tetrazol-5-yl)-1H-pyrazol-4-yl)-6-(trifluoromethyl)-1H-indazole] | 251 nM | 20 nM |
| C[C@@H](O)CNC(=O)c1c[nH]c(=O)c(-c2cc(C(F)(F)F)cc3[nH]ncc23)c1 [Example 336, (R)—N-(2-hydroxypropyl)-6-oxo-5-(6-(trifluoromethyl)-1H-indazol-4-yl)-1,6-dihydropyridine-3-carboxamide] | 631 nM | 10 nM |
| Nc1ncc(F)cc1-c1cc(C(F)(F)F)cc2[nH]ncc12 [Example 194, 5-fluoro-3-(6-(trifluoromethyl)-1H-indazol-4-yl)pyridin-2-amine] | 158 nM | 10 nM |
| COc1ccn2c(-c3cc(C(F)(F)F)cc4[nH]ncc34)cnc2c1C#N [Example 160, 7-methoxy-3-(6-(trifluoromethyl)-1H-indazol-4-yl)imidazo[1,2-a]pyridine-8-carbonitrile] | 79.4 nM | 39.8 nM |
| O=C(NCCO)c1c[nH]c(=O)c(-c2cc(C(F)(F)F)cc3[nH]ncc23)c1 [Example 299, N-(2-hydroxyethyl)-6-oxo-5-(6-(trifluoromethyl)-1H-indazol-4-yl)-1,6-dihydropyridine-3-carboxamide] | 398 nM | 7.94 nM |
| Fc1c[nH]c2ncc(-c3cc(C(F)(F)F)cc4[nH]ncc34)cc12 [Example 339, 4-(3-fluoro-1H-pyrrolo[2,3-b]pyridin-5-yl)-6-(trifluoromethyl)-1H-indazole] | 126 nM | 20 nM |
| NC(=O)c1ccc(F)c(-c2cc(C(F)(F)F)cc3[nH]ncc23)c1 [Example 326, 4-fluoro-3-(6-(trifluoromethyl)-1H-indazol-4-yl)benzamide] | 31.6 nM | 12.6 nM |
| CNS(=O)(=O)c1cccc(-c2cc(C(F)(F)F)cc3[nH]ncc23)c1 [Example 104, N-methyl-3-(6-(trifluoromethyl)-1H-indazol-4-yl)benzenesulfonamide] | 316 nM | 39.8 nM |
| Cc1nn(Cc2cnn(C)c2)c(CO)c1-c1cc(C(F)(F)F)cc2[nH]ncc12 [Example 410, (3-methyl-1-((1-methyl-1H-pyrazol-4-yl)methyl)-4-(6-(trifluoromethyl)-1H-indazol-4-yl)-1H-pyrazol-5-yl)methanol] | 15.8 nM | 6.31 nM |
| Cn1cc(C(=O)NCC(F)F)cc(-c2cc(C(F)(F)F)cc3[nH]ncc23)c1=O [Example 355, N-(2,2-difluoroethyl)-1-methyl-6-oxo-5-(6-(trifluoromethyl)-1H-indazol-4-yl)-1,6-dihydropyridine-3-carboxamide] | 316 nM | 5.01 nM |

| SMILES | IC50 (human MetAP2 enzyme [1]) | IC50 (human MetAP2 enzyme [2]) |
| --- | --- | --- |
| CCn1cc(-c2cc(C(F)(F)F)cc3[nH]ncc23)c(C)n1 [Example 171, 4-(1-ethyl-3-methyl-1H-pyrazol-4-yl)-6-(trifluoromethyl)-1H-indazole] | 63.1 nM | 5.01 nM |
| NS(=O)(=O)c1ccc(-c2cc(C(F)(F)F)cc3[nH]ncc23)cc1F [Example 344, 2-fluoro-4-(6-(trifluoromethyl)-1H-indazol-4-yl)benzenesulfonamide] | 100 nM | 6.31 nM |
| O=C(O)c1ncncc1-c1cc(C(F)(F)F)cc2[nH]ncc12 [Example 192, 5-(6-(trifluoromethyl)-1H-indazol-4-yl)pyrimidine-4-carboxylic acid] | 5010 nM | 100 nM |
| Cc1nc(C(N)=O)ccc1-c1cc(C(F)(F)F)cc2[nH]ncc12 [Example 379, 6-methyl-5-(6-(trifluoromethyl)-1H-indazol-4-yl)picolinamide] | 39.8 nM | 6.31 nM |
| Cn1cc(-c2cc(C(F)(F)F)cc3[nH]ncc23)c(=O)n(CC(=O)N2CCOCC2)c1=O [Example 310, 1-methyl-3-(2-morpholino-2-oxoethyl)-5-(6-(trifluoromethyl)-1H-indazol-4-yl)pyrimidine-2,4(1H,3H)-dione] | 1000 nM | 20 nM |
| NC(=O)c1cc(-c2cc(C(F)(F)F)cc3[nH]ncc23)ccc1F [Example 110, 2-fluoro-5-(6-(trifluoromethyl)-1H-indazol-4-yl)benzamide] | 63.1 nM | 3.98 nM |
| Cn1cc(C(=O)NC2CC2)cc(-c2cc(C(F)(F)F)cc3[nH]ncc23)c1=O [Example 357, N-cyclopropyl-1-methyl-6-oxo-5-(6-(trifluoromethyl)-1H-indazol-4-yl)-1,6-dihydropyridine-3-carboxamide] | 200 nM | 7.94 nM |
| O=C1COc2c(cccc2-c2cc(C(F)(F)F)cc3[nH]ncc23)N1 [Example 139, 8-(6-(trifluoromethyl)-1H-indazol-4-yl)-2H-benzo[b][1,4]oxazin-3(4H)-one] | 39.8 nM | 10 nM |
| Cn1cc(-c2cc(C(F)(F)F)cc3[nH]ncc23)c(=O)[nH]c1=O [Example 278, 1-methyl-5-(6-(trifluoromethyl)-1H-indazol-4-yl)pyrimidine-2,4(1H,3H)-dione] | 631 nM | 10 nM |
| COc1ccc(CC(=O)NCCO)cc1-c1cc(C(F)(F)F)cc2[nH]ncc12 [Example 320, N-(2-hydroxyethyl)-2-(4-methoxy-3-(6-(trifluoromethyl)-1H-indazol-4-yl)phenyl)acetamide] | 25.1 nM | 15.8 nM |
| Cc1ccc(-c2cc(C(F)(F)F)cc3[nH]ncc23)c(C)n1 [Example 215, 4-(2,6-dimethylpyridin-3-yl)-6-(trifluoromethyl)-1H-indazole] | 50.1 nM | 7.94 nM |
| COc1cc(C(=O)N2CCOCC2)ccc1-c1cc(C(F)(F)F)cc2[nH]ncc12 [Example 318, (3-methoxy-4-(6-(trifluoromethyl)-1H-indazol-4-yl)phenyl)(morpholino)methanone] | 39.8 nM | 12.6 nM |
| COc1ccc(C(N)=O)cc1-c1cc(C(F)(F)F)cc2[nH]ncc12 [Example 273, 4-methoxy-3-(6-(trifluoromethyl)-1H-indazol-4-yl)benzamide] | 20 nM | 3.98 nM |
| CNC(=O)Cn1c(=O)c(-c2cc(C(F)(F)F)cc3[nH]ncc23)cn(C)c1=O [Example 301, N-methyl-2-(3-methyl-2,6-dioxo-5-(6-(trifluoromethyl)-1H-indazol-4-yl)-2,3-dihydropyrimidin-1(6H)-yl)acetamide] | 1000 nM | 15.8 nM |
| NS(=O)(=O)c1ccc(-c2cc(C(F)(F)F)cc3[nH]ncc23)c(Cl)c1 [Example 351, 3-chloro-4-(6-(trifluoromethyl)-1H-indazol-4-yl)benzenesulfonamide] | 39.8 nM | 12.6 nM |
| O=C(c1c[nH]c(=O)c(-c2cc(C(F)(F)F)cc3[nH]ncc23)c1)N1CCOCC1 [Example 298, 5-(morpholine-4-carbonyl)-3-(6-(trifluoromethyl)-1H-indazol-4-yl)pyridin-2(1H)-one] | 398 nM | 10 nM |
| Cn1c(-c2cc(C(F)(F)F)cc3[nH]ncc23)nc2c1c(=O)[nH]c(=O)n2C [Example 167, 3,7-dimethyl-8-(6-(trifluoromethyl)-1H-indazol-4-yl)-1H-purine-2,6(3H,7H)-dione] | 158 nM | 3.98 nM |
| Cc1c(-c2cc(C(F)(F)F)cc3[nH]ncc23)ccc(=O)n1C [Example 402, 1,6-dimethyl-5-(6-(trifluoromethyl)-1H-indazol-4-yl)pyridin-2(1H)-one] | 39.8 nM | 3.16 nM |
| FC(F)(F)c1cc(-c2cccnc2OC2CCCC2)c2cn[nH]c2c1 [Example 98, 4-(2-(cyclopentyloxy)pyridin-3-yl)-6-(trifluoromethyl)-1H-indazole] | 39.8 nM | 15.8 nM |
